Literature values in patent US20060240101A1, “Orally disintegrating pharmaceutical tablet formulations of olanzapine” (priority 2005, published 2006).

Conditions: for water solubility: at 20° C.

SMILES | water solubility | solubility in water (2005 Physician Desk Reference label information for Zyprexa)
OC[C@@H](O)[C@@H](O)[C@H](O)[C@H](O)CO [Pearlitol® 50C, mannitol] | approximately 250 g/l | –
OC[C@@H](O)[C@@H](O)[C@H](O)[C@H](O)CO [Pearlitol® 200 SD, mannitol] | approximately 170 g/l | –
Cc1cc2c(s1)Nc1ccccc1N=C2N1CCN(C)CC1 [olanzapine, 2-methyl-4-(4-methyl-1-piperanzinyl)-10H-thieno[2,3-b][1,5] benzodiazepine] | – | insoluble in water
